In patent US12391737B2, “Soluble NPY2 receptor agonists” (Boehringer Ingelheim International GmbH, priority 2020, dated 2025):

How the values were obtained:
[1] = Solubility determination; conditions: for Sol6: pH 6; for Sol7: pH 7
In short: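 Shake-flask style: 10 mg/ml peptide (TFA salt), 0.1 M sodium diphosphate pH 6.4/7.0, 600 rpm, 2 h, RT; filter; dilute 1 mg/ml in 50% MeCN; RP-UPLC, 0–100% B over 2 min, 50 °C. Solubility = sample/control area ratio. Final pH recorded.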

[2] = biological target: T1, Human Neuropeptide Y2 Receptor (Homo sapiens, UniProt P49146); experiment: Radioligand binding competition assay (RLB); conditions: Table 3, 125I-PYY(1-36) competition; read-out: Ki
T1 construct: purchased CHEMICON HTS066M
T1 sequence (P49146 1-381): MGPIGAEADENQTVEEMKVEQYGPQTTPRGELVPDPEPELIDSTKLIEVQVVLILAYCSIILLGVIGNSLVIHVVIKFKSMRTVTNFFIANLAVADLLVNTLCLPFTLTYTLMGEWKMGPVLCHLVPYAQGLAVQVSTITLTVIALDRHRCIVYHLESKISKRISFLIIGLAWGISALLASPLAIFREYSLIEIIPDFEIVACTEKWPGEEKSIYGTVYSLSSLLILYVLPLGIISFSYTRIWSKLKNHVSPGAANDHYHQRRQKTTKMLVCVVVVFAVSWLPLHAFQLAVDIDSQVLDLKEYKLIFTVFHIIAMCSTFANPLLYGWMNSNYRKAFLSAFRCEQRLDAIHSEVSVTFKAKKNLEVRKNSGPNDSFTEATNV
In short: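 Receptor membranes, 0.5 μg/well; buffer 50 mM HEPES/5 mM MgCl2/1 mM CaCl2/0.2% ovalbumin, pH 7.4; 2 h RT, shaking. GF/C filtration, cold HEPES/500 mM NaCl wash, scintillation count. IC50 by nonlinear regression.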

SMILES | Sol6 [1] | Sol7 [1] | Ki [2]
CC(C)CC(=O)N[C@@H](C)C(=O)N1CCC[C@H]1C(=O)N[C@@H](CCC(=O)O)C(=O)N[C@@H](CCCCNC(=O)CCCCCNC(=O)CC[C@H](NC(=O)CCCCCCCCCCCCCCCCC(=O)O)C(=O)O)C(=O)N1CCC[C@H]1C(=O)N[C@@H](CCC(=O)O)C(=O)N[C@@H](CCC(=O)O)C(=O)N[C@@H](CC(=O)O)C(=O)N[C@@H](C)C(=O)N[C@H](C(=O)N[C@@H](CCC(N)=O)C(=O)N[C@@H](CCC(=O)O)C(=O)N[C@@H](CCC(=O)O)C(=O)N[C@@H](CC(C)C)C(=O)N[C@@H](CCC(N)=O)C(=O)N[C@@H](CCCNC(=N)N)C(=O)N[C@@H](Cc1ccc(O)cc1)C(=O)N[C@@H](Cc1ccc(O)cc1)C(=O)N[C@H](C(=O)N[C@@H](CO)C(=O)N[C@@H](CC(C)C)C(=O)N[C@@H](CCCNC(=N)N)C(=O)N[C@@H](Cc1c[nH]cn1)C(=O)N[C@@H](Cc1ccc(O)cc1)C(=O)N[C@@H](Cc1ccc(O)cc1)C(=O)N[C@@H](CC(N)=O)C(=O)N[C@@H](Cc1c[nH]c2ccccc12)C(=O)N[C@@H](CC(C)C)C(=O)N[C@H](C(=O)N[C@@H](CCCNC(=N)N)C(=O)N[C@@H](CCC(N)=O)C(=O)N[C@@H](CCCNC(=N)N)C(=O)N[C@@H](Cc1ccc(O)cc1)C(N)=O)[C@@H](C)O)C(C)C)[C@@H](C)O [Compound 105, N{alpha-4}-(3-methylbutanoyl)-N{epsilon-7}-(6-[(4S)-4-carboxy-4-(17-carboxyheptadecanamido)butanamido]hexanoyl)-[4A,7K,9E,13T,14Q,18Q,22V,28Y,30W,31L]-hPYY(4-36)] | >10.0 mg/mL | 9.9 mg/mL | 5.97 nM
CC(C)CC(=O)N[C@@H](C)C(=O)N1CCC[C@H]1C(=O)N[C@@H](CCC(=O)O)C(=O)N[C@@H](CCCCNC(=O)CCCCCNC(=O)CC[C@H](NC(=O)CCCCCCCCCCCCCCCCC(=O)O)C(=O)O)C(=O)N1CCC[C@H]1C(=O)N[C@@H](CCC(=O)O)C(=O)N[C@@H](CCC(=O)O)C(=O)N[C@@H](CC(=O)O)C(=O)N[C@@H](C)C(=O)N[C@H](C(=O)N1CCC[C@H]1C(=O)N[C@@H](CCC(=O)O)C(=O)N[C@@H](CCC(=O)O)C(=O)N[C@@H](CC(C)C)C(=O)N[C@@H](CCC(N)=O)C(=O)N[C@@H](CCCNC(=N)N)C(=O)N[C@@H](Cc1ccc(O)cc1)C(=O)N[C@@H](Cc1ccc(O)cc1)C(=O)N[C@H](C(=O)N[C@@H](CO)C(=O)N[C@@H](CC(C)C)C(=O)N[C@@H](CCCNC(=N)N)C(=O)N[C@@H](Cc1c[nH]cn1)C(=O)N[C@@H](Cc1ccc(O)cc1)C(=O)N[C@@H](Cc1ccc(O)cc1)C(=O)N[C@@H](CC(N)=O)C(=O)N[C@@H](Cc1c[nH]c2ccccc12)C(=O)N[C@@H](CC(C)C)C(=O)N[C@@H](CCC(N)=O)C(=O)N[C@@H](CCCNC(=N)N)C(=O)N[C@@H](CCC(N)=O)C(=O)N[C@@H](CCCNC(=N)N)C(=O)N[C@@H](Cc1ccc(O)cc1)C(N)=O)C(C)C)[C@@H](C)O [Compound 188, N{alpha-4}-(3-methylbutanoyl)-N{epsilon-7}-(6-[(4S)-4-carboxy-4-(17-carboxyheptadecanamido)butanamido]hexanoyl)-[4A,7K,9E,13T,18Q,22V,28Y,30W,31L,32Q]-hPYY(4-36)] | 9.5 mg/mL | 9.8 mg/mL | 5.46 nM
CC(C)CC(=O)N[C@@H](C)C(=O)N1CCC[C@H]1C(=O)N[C@@H](CCC(=O)O)C(=O)N[C@@H](CCCCNC(=O)CCCCCNC(=O)CC[C@H](NC(=O)CCCCCCCCCCCCCCCCC(=O)O)C(=O)O)C(=O)N1CCC[C@H]1C(=O)N[C@@H](CCC(=O)O)C(=O)N[C@@H](CCC(=O)O)C(=O)N[C@@H](CC(=O)O)C(=O)N[C@@H](C)C(=O)N[C@H](C(=O)N1CCC[C@H]1C(=O)N[C@@H](CCC(=O)O)C(=O)N[C@@H](CCC(=O)O)C(=O)N[C@@H](CC(C)C)C(=O)N[C@@H](CCC(N)=O)C(=O)N[C@@H](CCCNC(=N)N)C(=O)N[C@@H](Cc1ccc(O)cc1)C(=O)N[C@@H](Cc1ccc(O)cc1)C(=O)N[C@H](C(=O)N[C@@H](CO)C(=O)N[C@@H](CC(C)C)C(=O)N[C@@H](CCCNC(=N)N)C(=O)N[C@@H](Cc1c[nH]cn1)C(=O)N[C@@H](Cc1ccc(O)cc1)C(=O)N[C@@H](Cc1ccc(O)cc1)C(=O)N[C@@H](CC(N)=O)C(=O)N[C@@H](Cc1c[nH]c2ccccc12)C(=O)N[C@@H](CC(C)C)C(=O)N[C@@H](CC(C)C)C(=O)N[C@@H](CCCNC(=N)N)C(=O)N[C@@H](CCC(N)=O)C(=O)N[C@@H](CCCNC(=N)N)C(=O)N[C@@H](Cc1ccc(O)cc1)C(N)=O)C(C)C)[C@@H](C)O [Compound 137, N{alpha-4}-(3-methylbutanoyl)-N{epsilon-7}-(6-[(4S)-4-carboxy-4-(17-carboxyheptadecanamido)butanamido]hexanoyl)-[4A,7K,9E,13T,18Q,22V,28Y,30W,31L,32L]-hPYY(4-36)] | >10.0 mg/mL | >10.0 mg/mL | 49.6 nM

These reach a lower Ki [2]. Values come first.

Sol6 [1] | Sol7 [1] | Ki [2] | SMILES
9.6 mg/mL | 9.7 mg/mL | 4.68 nM | CC(C)CC(=O)N[C@@H](C)C(=O)N1CCC[C@H]1C(=O)N[C@@H](C)C(=O)N[C@@H](CCCCNC(=O)CCCCCNC(=O)CC[C@H](NC(=O)CCCCCCCCCCCCCCCCC(=O)O)C(=O)O)C(=O)N1CCC[C@H]1C(=O)N[C@@H](CCC(=O)O)C(=O)N[C@@H](CCC(=O)O)C(=O)N[C@@H](CC(=O)O)C(=O)N[C@@H](C)C(=O)N[C@@H](CCC(=O)O)C(=O)N1CCC[C@H]1C(=O)N[C@@H](CCC(=O)O)C(=O)N[C@@H](CCC(=O)O)C(=O)N[C@@H](CC(C)C)C(=O)N[C@@H](CCC(N)=O)C(=O)N[C@@H](CCCNC(=N)N)C(=O)N[C@@H](Cc1ccc(O)cc1)C(=O)N[C@@H](Cc1ccc(O)cc1)C(=O)N[C@H](C(=O)N[C@@H](CO)C(=O)N[C@@H](CC(C)C)C(=O)N[C@@H](CCCNC(=N)N)C(=O)N[C@@H](Cc1c[nH]cn1)C(=O)N[C@@H](Cc1ccc(O)cc1)C(=O)N[C@@H](Cc1ccc(O)cc1)C(=O)N[C@@H](CC(N)=O)C(=O)N[C@@H](Cc1c[nH]c2ccccc12)C(=O)N[C@@H](CC(C)C)C(=O)N[C@H](C(=O)N[C@@H](CCCNC(=N)N)C(=O)N[C@@H](CCC(N)=O)C(=O)N[C@@H](CCCNC(=N)N)C(=O)N[C@@H](Cc1ccc(O)cc1)C(N)=O)[C@@H](C)O)C(C)C [Compound 133, N{alpha-4}-(3-methylbutanoyl)-N{epsilon-7}-(6-[(4S)-4-carboxy-4-(17-carboxyheptadecanamido)butanamido]hexanoyl)-[4A,6A,7K,9E,13E,18Q,22V,28Y,30W,31L]-hPYY(4-36)]
8.6 mg/mL | 9.1 mg/mL | 1.61 nM | CC(C)CC(=O)N[C@@H](C)C(=O)N1CCC[C@H]1C(=O)N[C@@H](C)C(=O)N[C@@H](CCCCNC(=O)CCCCCNC(=O)CC[C@H](NC(=O)CCCCCCCCCCCCCCCCC(=O)O)C(=O)O)C(=O)N1CCC[C@H]1C(=O)N[C@@H](CCC(=O)O)C(=O)N[C@@H](CCC(=O)O)C(=O)N[C@@H](CC(=O)O)C(=O)N[C@@H](C)C(=O)N[C@@H](CO)C(=O)N1CCC[C@H]1C(=O)N[C@@H](CCC(=O)O)C(=O)N[C@@H](CCC(=O)O)C(=O)N[C@H](C(=O)N[C@@H](CCC(N)=O)C(=O)N[C@@H](CCCNC(=N)N)C(=O)N[C@@H](Cc1ccc(O)cc1)C(=O)N[C@@H](Cc1ccc(O)cc1)C(=O)N[C@H](C(=O)N[C@@H](CO)C(=O)N[C@@H](CC(C)C)C(=O)N[C@@H](CCCNC(=N)N)C(=O)N[C@@H](Cc1c[nH]cn1)C(=O)N[C@@H](Cc1ccc(O)cc1)C(=O)N[C@@H](Cc1ccc(O)cc1)C(=O)N[C@@H](CC(N)=O)C(=O)N[C@@H](Cc1c[nH]c2ccccc12)C(=O)N[C@@H](CC(C)C)C(=O)N[C@H](C(=O)N[C@@H](CCCNC(=N)N)C(=O)N[C@@H](CCC(N)=O)C(=O)N[C@@H](CCCNC(=N)N)C(=O)N[C@@H](Cc1ccc(O)cc1)C(N)=O)[C@@H](C)O)C(C)C)[C@@H](C)O [Compound 85, N{alpha-4}-(3-methylbutanoyl)-N{epsilon-7}-(6-[(4S)-4-carboxy-4-(17-carboxyheptadecanamido)butanamido]hexanoyl)-[4A,6A,7K,9E,17T,18Q,22V,28Y,30W,31L]-hPYY(4-36)]
